Reference: patent publication US20260262643A1, “HERBICIDAL BENZOXAZINES” (FMC CORPORATION, priority 2022, published 2026)

Tests used:
green foxtail [1] = assay: Test C postemergence; assay type: in vivo, Setaria viridis; details: 10 days, 0 to 100 scale (0 no effect, 100 complete control)
Summary of the method: (§1)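 Seeds sown in loam soil–sand blend received a directed preemergence soil spray of test chemical in non-phytotoxic solvent with surfactant; postemergence plants (2–10 cm, one- to two-leaf stage) were sprayed with the same formulation. Greenhouse-held 10 days, then visually rated for injury versus untreated controls, 0 (no effect) to 100 (complete control).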

kochia [2] = assay: Test C postemergence; assay type: in vivo, Bassia scoparia; details: 10 days, 0 to 100 scale (0 no effect, 100 complete control)
Summary of the method: as §1

barnyardgrass [3] = assay: Test C postemergence; assay type: in vivo, Echinochloa crusgalli; details: 10 days, 0 to 100 scale (0 no effect, 100 complete control)
Summary of the method: as §1

corn [4] = assay: Test C preemergence; assay type: in vivo, Zea mays
Summary of the method: as §1

oat, wild [5] = assay: Test C preemergence; assay type: in vivo, Avena fatua
Summary of the method: as §1

ducksalad = assay: Test D flooded paddy test; assay type: in vivo, Heteranthera limosa; details: 250 g ai/ha, applied to paddy water, visual rating after 13 to 14 days, scale 0 to 100 (0 no effect, 100 complete control)
Summary of the method: (§2)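 Compounds go straight into paddy water over 2-leaf plants in pots flooded to 3 cm. Greenhouse holding lasts 13 to 14 days. Injury is scored by eye against controls from 0 (none) to 100 (complete control).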

soybean [6] = assay: Test C preemergence; assay type: in vivo, Glycine max
Summary of the method: as §1

ryegrass, Italian [7] = assay: Test C postemergence; assay type: in vivo, Lolium multiflorum; details: 10 days, 0 to 100 scale (0 no effect, 100 complete control)
Summary of the method: as §1

wheat [8] = assay: Test C preemergence; assay type: in vivo, Triticum aestivum
Summary of the method: as §1

sedge, umbrella = assay: Test D flooded paddy test; assay type: in vivo, Cyperus difformis; details: 250 g ai/ha, applied to paddy water, visual rating after 13 to 14 days, scale 0 to 100 (0 no effect, 100 complete control)
Summary of the method: as §2

pigweed, palmer [9] = assay: Test C postemergence; assay type: in vivo, Amaranthus palmeri; details: 10 days, 0 to 100 scale (0 no effect, 100 complete control)
Summary of the method: as §1

wheat [10] = assay: Test C postemergence; assay type: in vivo, Triticum aestivum; details: 10 days, 0 to 100 scale (0 no effect, 100 complete control)
Summary of the method: as §1

galium = assay: Test C postemergence; assay type: in vivo, Galium aparine; details: 10 days, 0 to 100 scale (0 no effect, 100 complete control)
Summary of the method: as §1

ragweed [11] = assay: Test C preemergence; assay type: in vivo, Ambrosia artemisiifolia
Summary of the method: as §1

barnyardgrass [12] = assay: Test C preemergence; assay type: in vivo, Echinochloa crusgalli
Summary of the method: as §1

rice = assay: Test D flooded paddy test; assay type: in vivo, Oryza sativa; details: 250 g ai/ha, applied to paddy water, visual rating after 13 to 14 days, scale 0 to 100 (0 no effect, 100 complete control)
Summary of the method: as §2

horseweed = assay: Test C postemergence; assay type: in vivo, Erigeron canadensis; details: 10 days, 0 to 100 scale (0 no effect, 100 complete control)
Summary of the method: as §1

oat, wild [13] = assay: Test C postemergence; assay type: in vivo, Avena fatua; details: 10 days, 0 to 100 scale (0 no effect, 100 complete control)
Summary of the method: as §1

blackgrass [14] = assay: Test C postemergence; assay type: in vivo, Alopecurus myosuroides; details: 10 days, 0 to 100 scale (0 no effect, 100 complete control)
Summary of the method: as §1

pigweed, palmer [15] = assay: Test C preemergence; assay type: in vivo, Amaranthus palmeri
Summary of the method: as §1

corn [16] = assay: Test C postemergence; assay type: in vivo, Zea mays; details: 10 days, 0 to 100 scale (0 no effect, 100 complete control)
Summary of the method: as §1

ragweed [17] = assay: Test C postemergence; assay type: in vivo, Ambrosia artemisiifolia; details: 10 days, 0 to 100 scale (0 no effect, 100 complete control)
Summary of the method: as §1

green foxtail [18] = assay: Test C preemergence; assay type: in vivo, Setaria viridis
Summary of the method: as §1

kochia [19] = assay: Test C preemergence; assay type: in vivo, Bassia scoparia
Summary of the method: as §1

barnyardgrass [20] = assay: Test D flooded paddy test; assay type: in vivo, Echinochloa crus-galli; details: 250 g ai/ha, applied to paddy water, visual rating after 13 to 14 days, scale 0 to 100 (0 no effect, 100 complete control)
Summary of the method: as §2

blackgrass [21] = assay: Test C preemergence; assay type: in vivo, Alopecurus myosuroides
Summary of the method: as §1

ryegrass, Italian [22] = assay: Test C preemergence; assay type: in vivo, Lolium multiflorum
Summary of the method: as §1

soybean [23] = assay: Test C postemergence; assay type: in vivo, Glycine max; details: 10 days, 0 to 100 scale (0 no effect, 100 complete control)
Summary of the method: as §1

[24] = 500 g ai/ha, preemergence, 0 to 100 scale (0 no effect, 100 complete control)
[25] = Preemergence, 125 g ai/ha, 0 to 100 scale, 0 no effect, 100 complete control

`CCOC(=O)c1ncn(-c2ccc(C)c(C(=O)N3C[C@H](C)Oc4c(Cl)cccc43)c2)n1` [Compound 342] was tested, and the “Plant response rating, Foxtail, Green” value (green foxtail [1]; 500 g ai/ha, postemergence) was 90, the “Plant response rating, Foxtail, Green” value (green foxtail [1]; Postemergence, 125 g ai/ha) was 80 and the “Plant response rating, Kochia” value (kochia [2]; 500 g ai/ha, postemergence) was 60. For the same molecule, the “Plant response rating, Kochia” value (kochia [2]; Postemergence, 125 g ai/ha) was 40, the “Plant response rating, Barnyardgrass” value (barnyardgrass [3]; 500 g ai/ha, postemergence) was 70 and the “Plant response rating, Barnyardgrass” value (barnyardgrass [3]; Postemergence, 125 g ai/ha) was 60. For the same molecule, the “Corn plant response rating” value (corn [4]; [24]) was 20, the “Plant response rating, Corn” value (corn [4]; [25]) was 0 and the “Oat, Wild plant response rating” value (oat, wild [5]; [24]) was 80. The “Plant response rating, Oat, Wild” value (oat, wild [5]; [25]) was 20, the “Plant response rating, Ducksalad (Flood)” value (ducksalad) was 10 and the “Soybean plant response rating” value (soybean [6]; [24]) was 10. For the same molecule, the “Plant response rating, Soybean” value (soybean [6]; [25]) was 10, the “Plant response rating, Ryegrass, Italian” value (ryegrass, Italian [7]; 500 g ai/ha, postemergence) was 70 and the “Plant response rating, Ryegrass, Italian” value (ryegrass, Italian [7]; Postemergence, 125 g ai/ha) was 70. The “Wheat plant response rating” value (wheat [8]; [24]) was 30, the “Plant response rating, Wheat” value (wheat [8]; [25]) was 0 and the “Plant response rating, Sedge, Umbrella (Flood)” value (sedge, umbrella) was 15. The “Plant response rating, Pigweed, Palmer” value (pigweed, palmer [9]; 500 g ai/ha, postemergence) was 100, the “Plant response rating, Pigweed, Palmer” value (pigweed, palmer [9]; Postemergence, 125 g ai/ha) was 90 and the “Plant response rating, Wheat” value (wheat [10]; 500 g ai/ha, postemergence) was 80. The “Plant response rating, Wheat” value (wheat [10]; Postemergence, 125 g ai/ha) was 70, the “Plant response rating, Galium” value (galium; 500 g ai/ha, postemergence) was 80 and the “Plant response rating, Galium” value (galium; Postemergence, 125 g ai/ha) was 70. For the same molecule, the “Ragweed plant response rating” value (ragweed [11]; [24]) was 20, the “Plant response rating, Ragweed” value (ragweed [11]; [25]) was 0 and the “Barnyardgrass plant response rating” value (barnyardgrass [12]; [24]) was 60. The “Plant response rating, Barnyardgrass” value (barnyardgrass [12]; [25]) was 20, the “Plant response rating, Rice (Flood)” value (rice) was 15 and the “Plant response rating, Horseweed” value (horseweed; 500 g ai/ha, postemergence) was 50. For the same molecule, the “Plant response rating, Horseweed” value (horseweed; Postemergence, 125 g ai/ha) was 10, the “Plant response rating, Oat, Wild” value (oat, wild [13]; 500 g ai/ha, postemergence) was 80 and the “Plant response rating, Oat, Wild” value (oat, wild [13]; Postemergence, 125 g ai/ha) was 70. For the same molecule, the “Plant response rating, Blackgrass” value (blackgrass [14]; 500 g ai/ha, postemergence) was 80, the “Plant response rating, Blackgrass” value (blackgrass [14]; Postemergence, 125 g ai/ha) was 60 and the “Pigweed, Palmer plant response rating” value (pigweed, palmer [15]; [24]) was 70. The “Plant response rating, Pigweed, Palmer” value (pigweed, palmer [15]; [25]) was 30, the “Plant response rating, Corn” value (corn [16]; 500 g ai/ha, postemergence) was 70 and the “Plant response rating, Corn” value (corn [16]; Postemergence, 125 g ai/ha) was 70. The “Plant response rating, Ragweed” value (ragweed [17]; 500 g ai/ha, postemergence) was 80, the “Plant response rating, Ragweed” value (ragweed [17]; Postemergence, 125 g ai/ha) was 50 and the “Foxtail, Green plant response rating” value (green foxtail [18]; [24]) was 90. For the same molecule, the “Plant response rating, Foxtail, Green” value (green foxtail [18]; [25]) was 40, the “Kochia plant response rating” value (kochia [19]; [24]) was 0 and the “Plant response rating, Kochia” value (kochia [19]; [25]) was 0. For the same molecule, the “Plant response rating, Barnyardgrass (Flood)” value (barnyardgrass [20]) was 0, the “Blackgrass plant response rating” value (blackgrass [21]; [24]) was 50 and the “Plant response rating, Blackgrass” value (blackgrass [21]; [25]) was 20. For the same molecule, the “Ryegrass, Italian plant response rating” value (ryegrass, Italian [22]; [24]) was 80, the “Plant response rating, Ryegrass, Italian” value (ryegrass, Italian [22]; [25]) was 70 and the “Plant response rating, Soybean” value (soybean [23]; 500 g ai/ha, postemergence) was 90. The “Plant response rating, Soybean” value (soybean [23]; Postemergence, 125 g ai/ha) was 100.
